Data taken from patent USRE50663E1, “Heterocycle derivatives as pesticides” (Bayer Aktiengesellschaft, priority 2017, dated 2025).

Tests used:
Assay type in all cases: in vivo
[1] = tested on: adult cat fleas (Ctenocephalides felis); assay: Ctenocephalides felis in vitro contact test with adult cat fleas; conditions: application rate 5 μg/cm^2 (=500 g/ha), after 48 h, dead or moribund fleas
Experimental: (§1) For the coating of the test tubes, 9 mg of active compound are first dissolved in 1 ml of acetone p.a. and then diluted to the desired concentration with acetone p.a. 250 μl of the solution are distributed homogeneously on the inner walls and the base of a 25 ml glass tube by turning and rocking on an orbital shaker (rocking rotation at 30 rpm for 2 h). With 900 ppm of active compound solution and internal surface area 44.7 cm^2, given homogeneous distribution, an area-based dose of 5 μg/cm^2 is achieved.
After the solvent has evaporated off, the tubes are populated with 5-10 adult cat fleas (Ctenocephalides felis), sealed with a perforated plastic lid and incubated in a horizontal position at room temperature and ambient humidity. After 48 h, efficacy is determined. To this end, the tubes are stood upright and the fleas are knocked to the base of the tube. Fleas which remain motionless at the base or move in an uncoordinated manner are considered to be dead or moribund.
100% efficacy means that all the fleas were dead or moribund. 0% efficacy means that no fleas were harmed.

[2] = tested on: adult cat fleas (Ctenocephalides felis); assay: Ctenocephalides felis oral test; conditions: 48 h, 100 ppm in citrated cattle blood, after 2 days, read-out: efficacy (kill)
Method in brief: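 Test compound in DMSO, diluted in citrated cattle blood to the test concentration and offered to ~20 unfed adults through a parafilm membrane. Kill % scored after 2 days (100% = all fleas dead, 0% = none).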

[3] = tested on: adult dog ticks (Rhipicephalus sanguineus); assay: Rhipicephalus sanguineus in vitro contact test with adult brown dog ticks; conditions: application rate 5 μg/cm^2, after 48 h, dead or moribund ticks
Experimental: as §1
After the solvent has evaporated off, the tubes are populated with 5-10 adult dog ticks (Rhipicephalus sanguineus), sealed with a perforated plastic lid and incubated in a horizontal position in the dark at room temperature and ambient humidity. After 48 h, efficacy is determined. To this end, the ticks are knocked to the base of the tube and incubated on a hotplate at 45-50° C. for not more than 5 min. Ticks which remain motionless on the base or move in such an uncoordinated manner that they are unable to deliberately avoid the heat by climbing upwards are considered to be dead or moribund.
An efficacy of 100% means that all the ticks were dead or moribund. 0% efficacy means that none of the ticks were harmed.

[4] = tested on: larvae of the diamondback moth (Plutella xylostella); assay: Comparative Plutella xylostella spray test (PLUTMA); conditions: 168 h, 7 dat, read-out: % efficacy
Experimental: (§2) Solvent: 14 parts by weight of dimethylformamide
(§3) Emulsifier: alkylaryl polyglycol ether
(§4) To produce a suitable active compound formulation, 1 part by weight of active compound is dissolved with the specified parts by weight of solvent and made up to the desired concentration with water containing an emulsifier concentration of 1000 ppm. To produce further test concentrations, the formulation is diluted with emulsifier-containing water. If the addition of ammonium salts or/and penetrants is required, these are each added in a concentration of 1000 ppm to the formulation solution.
Cabbage leaves (Brassica oleracea) are sprayed with an active ingredient formulation of the desired concentration and infected with larvae of the diamondback moth (Plutella xylostella).
(§5) After the desired time, the kill in % is determined. 100% means that all caterpillars have been killed; 0% means that none of the caterpillars have been killed.

[5] = tested on: caterpillars of the armyworm (Spodoptera frugiperda); assay: Comparative Spodoptera frugiperda drench test (SPODFR D); conditions: soil, 336 h, 14 dat, read-out: % efficacy
Experimental: (§6) Solvent: 7 parts by weight of dimethylformamide
(§7) Emulsifier: 2 parts by weight of alkylaryl polyglycol ether
(§8) To produce a suitable active ingredient formulation, 1 part by weight of active ingredient is mixed with the specified amounts of solvent and emulsifier, and the concentrate is diluted with water to the desired concentration, it being necessary to take into account the volume of soil which is drenched. It should be ensured that a concentration of 40 ppm of emulsifier in the soil is not exceeded. To produce further test concentrations, water is used for dilution.
Maize plants (Zea mays) in pots of soil are watered with an active ingredient formulation of the desired concentration and infected with caterpillars of the armyworm (Spodoptera frugiperda).
as §5

[6] = tested on: green peach aphid (Myzus persicae); assay: Comparative Myzus persicae spray test (MYZUPE); conditions: 144 h, 6 dat, read-out: % efficacy
Experimental: as §2, §3, §4
Bell pepper plants (Capsicum annuum) severely infested with the green peach aphid (Myzus persicae) are treated by spraying with the active ingredient formulation in the desired concentration.
After the desired time, the kill in % is determined. 100% means that all the animals have been killed; 0% means that no animals have been killed.

[7] = tested on: green peach aphid (Myzus persicae); assay: Comparative Myzus persicae drench test (MYZUPE D); conditions: soil, 240 h, 10 dat, read-out: % efficacy
Experimental: as §6, §7, §8
Savoy cabbage (Brassica oleracea) in pots with soil and infested by all stages of the green peach aphid (Myzus persicae) is watered with an active ingredient formulation of the desired concentration.
After the desired period of time, the efficacy in % is determined. 100% means that all the aphids have been killed; 0% means that no aphids have been killed.

**Q.** For `CCS(=O)(=O)c1c(-c2nc3cc(C(F)(F)F)cnc3n2C)nc2cc(C3(C#N)CC3)ccn12` [Example I-11, 1-{3-(Ethylsulfonyl)-2-[3-methyl-6-(trifluoromethyl)-3H-imidazo[4,5-b]pyridin-2-yl]imidazo[1,2-a]pyridin-7-yl}cyclopropanecarbonitrile], which efficacy [1] is on record?
**A.** The efficacy was 100%.

**Q.** And the pest or weed control at 100 ppm [2]?
**A.** The pest or weed control at 100 ppm was 100%.

**Q.** What about the efficacy [3] of the same molecule?
**A.** The efficacy was 100%.

**Q.** What about the Emax at 0.16 ppm [4] of the same molecule?
**A.** Its Emax at 0.16 ppm is 100%.

**Q.** And the Emax at 0.16 ppm [5]?
**A.** The Emax at 0.16 ppm was 100%.

**Q.** What about the Emax at 0.8 ppm [6] of the same molecule?
**A.** The Emax at 0.8 ppm was 90%.

**Q.** What about the Emax at 0.8 ppm [7] of the same molecule?
**A.** Its Emax at 0.8 ppm is 95%.
